Results on 3 compounds are retold here after ChEMBL document CHEMBL1149703 (Bioorg Med Chem Lett, 2007).

For assay [1], the target named is cAMP-dependent protein kinase catalytic subunit alpha (Homo sapiens, UniProt P17612). In words: Inhibition of cAPK Calpha in presence of 1 mM ATP.
In assay [2] the target is Tyrosine-protein kinase CSK (Homo sapiens) (UniProt P41240). In words: Inhibition of CSK assessed as residual activity at 1 uM.
The target in assay [3] is Aurora kinase B (Homo sapiens) (UniProt Q96GD4). In words: Inhibition of AURORA B assessed as residual activity at 0.01 uM.
Assay [4] addresses Calcium/calmodulin-dependent protein kinase type 1 (Homo sapiens) (UniProt Q14012). Nature of the assay: Inhibition of CAMK1 assessed as residual activity at 0.01 uM.
The target of assay [5] is T1, AMP-activated protein kinase, AMPK (Homo sapiens) (UniProt P54646+O43741+P54619+Q9UGJ0+Q9Y478+Q13131+Q9UGI9). In words: Inhibition of AMPK assessed as residual activity at 0.01 uM. It counts as protein-complex assay.
The target of assay [6] is Tyrosine-protein kinase CSK (Homo sapiens) (UniProt P41240). Nature of the assay: Inhibition of CSK assessed as residual activity at 0.01 uM.
Assay [7] addresses Maternal embryonic leucine zipper kinase (Homo sapiens) (UniProt Q14680). Nature of the assay: Inhibition of MELK assessed as residual activity at 1 uM.
The target in assay [8] is Ribosomal protein S6 kinase alpha-3 (Homo sapiens) (UniProt P51812). In words: Inhibition of RSK2 assessed as residual activity at 1 uM.
In assay [9] the target is Serine/threonine-protein kinase Chk1 (Homo sapiens) (UniProt O14757). In words: Inhibition of CHK1 assessed as residual activity at 1 uM.
Serine/threonine-protein kinase Chk1 (Homo sapiens), sequence (O14757 whole entry): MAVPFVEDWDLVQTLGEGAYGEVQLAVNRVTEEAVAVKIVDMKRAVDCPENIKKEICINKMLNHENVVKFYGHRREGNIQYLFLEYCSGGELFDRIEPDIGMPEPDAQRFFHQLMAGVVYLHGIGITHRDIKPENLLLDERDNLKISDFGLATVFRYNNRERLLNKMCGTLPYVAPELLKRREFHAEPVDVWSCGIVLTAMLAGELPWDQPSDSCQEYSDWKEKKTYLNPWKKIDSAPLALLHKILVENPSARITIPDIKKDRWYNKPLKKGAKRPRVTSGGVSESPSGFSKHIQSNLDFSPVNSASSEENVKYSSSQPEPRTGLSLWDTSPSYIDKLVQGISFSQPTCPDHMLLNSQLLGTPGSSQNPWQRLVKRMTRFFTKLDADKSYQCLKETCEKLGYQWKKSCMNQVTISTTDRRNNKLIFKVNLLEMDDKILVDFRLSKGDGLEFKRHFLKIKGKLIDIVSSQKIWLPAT
The target of assay [10] is RAC-beta serine/threonine-protein kinase (Homo sapiens) (UniProt P31751). In words: Inhibition of PKBbeta assessed as residual activity at 1 uM.
RAC-beta serine/threonine-protein kinase (Homo sapiens), sequence (P31751 whole entry): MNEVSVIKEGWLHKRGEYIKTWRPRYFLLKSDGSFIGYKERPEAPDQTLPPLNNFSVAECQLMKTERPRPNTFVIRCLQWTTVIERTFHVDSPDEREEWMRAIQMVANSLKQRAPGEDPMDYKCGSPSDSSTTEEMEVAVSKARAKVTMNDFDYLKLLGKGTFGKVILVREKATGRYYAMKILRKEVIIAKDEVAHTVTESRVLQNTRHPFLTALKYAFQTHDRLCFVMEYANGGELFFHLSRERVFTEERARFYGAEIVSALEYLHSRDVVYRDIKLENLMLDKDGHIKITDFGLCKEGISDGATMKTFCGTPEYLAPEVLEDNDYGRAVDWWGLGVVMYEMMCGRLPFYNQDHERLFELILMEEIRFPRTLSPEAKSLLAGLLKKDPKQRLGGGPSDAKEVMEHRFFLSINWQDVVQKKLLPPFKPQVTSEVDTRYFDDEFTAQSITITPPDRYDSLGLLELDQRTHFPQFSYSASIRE
The target of assay [11] is Ribosomal protein S6 kinase alpha-1 (Homo sapiens) (UniProt Q15418). In words: Inhibition of RSK1 assessed as residual activity at 1 uM.
Assay [12] deals with Serine/threonine-protein kinase Sgk1 (Homo sapiens) (UniProt O00141). Nature of the assay: Inhibition of SGK1 assessed as residual activity at 1 uM.
Serine/threonine-protein kinase Sgk1 (Homo sapiens), sequence (O00141 whole entry): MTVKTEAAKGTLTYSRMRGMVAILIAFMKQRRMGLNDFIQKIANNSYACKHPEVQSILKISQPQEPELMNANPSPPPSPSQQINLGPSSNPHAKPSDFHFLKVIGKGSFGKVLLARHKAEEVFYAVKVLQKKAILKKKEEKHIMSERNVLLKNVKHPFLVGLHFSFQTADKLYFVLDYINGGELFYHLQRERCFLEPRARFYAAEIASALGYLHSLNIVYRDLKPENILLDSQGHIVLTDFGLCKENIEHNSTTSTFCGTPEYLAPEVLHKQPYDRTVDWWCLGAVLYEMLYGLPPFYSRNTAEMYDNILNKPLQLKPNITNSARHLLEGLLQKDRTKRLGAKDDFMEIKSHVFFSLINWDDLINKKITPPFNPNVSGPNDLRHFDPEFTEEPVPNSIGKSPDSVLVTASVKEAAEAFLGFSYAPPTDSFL
In assay [13] the target is Mitogen-activated protein kinase 10 (Homo sapiens) (UniProt P53779). Nature of the assay: Inhibition of JNK3 assessed as residual activity at 0.01 uM.
Assay [14] concerns the target Tyrosine-protein kinase Lck (Homo sapiens) (UniProt P06239). In words: Inhibition of Lck assessed as residual activity at 0.01 uM.
Assay [15] deals with Glycogen synthase kinase-3 beta (Homo sapiens) (UniProt P49841). Nature of the assay: Inhibition of GSK3-beta assessed as residual activity at 0.01 uM.
In assay [16] the target is MAP kinase-activated protein kinase 3 (Homo sapiens) (UniProt Q16644). In words: Inhibition of MAPKAP K3 assessed as residual activity at 0.01 uM.
MAP kinase-activated protein kinase 3 (Homo sapiens), sequence (Q16644 whole entry, looked up): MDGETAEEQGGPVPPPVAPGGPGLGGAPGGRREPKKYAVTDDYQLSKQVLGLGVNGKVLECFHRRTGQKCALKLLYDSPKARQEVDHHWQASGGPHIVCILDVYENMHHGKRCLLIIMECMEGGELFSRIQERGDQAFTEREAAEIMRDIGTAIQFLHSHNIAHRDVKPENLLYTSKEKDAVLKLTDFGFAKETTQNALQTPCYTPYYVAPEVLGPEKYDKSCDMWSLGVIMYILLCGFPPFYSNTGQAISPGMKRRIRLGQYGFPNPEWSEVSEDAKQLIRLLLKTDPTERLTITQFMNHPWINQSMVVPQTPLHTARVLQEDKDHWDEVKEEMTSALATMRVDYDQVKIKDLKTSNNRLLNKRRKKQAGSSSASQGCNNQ
For assay [17], the species on record is Homo sapiens. Nature of the assay: Inhibition of PKA assessed as residual activity at 1 uM.
Assay [18] has as its target MAP kinase-activated protein kinase 5 (Homo sapiens) (UniProt Q8IW41). In words: Inhibition of PRAK assessed as residual activity at 1 uM.
The target of assay [19] is Protein kinase C zeta type (Homo sapiens) (UniProt Q05513). Nature of the assay: Inhibition of PKCzeta assessed as residual activity at 1 uM.
Protein kinase C zeta type (Homo sapiens), sequence (Q05513 whole entry): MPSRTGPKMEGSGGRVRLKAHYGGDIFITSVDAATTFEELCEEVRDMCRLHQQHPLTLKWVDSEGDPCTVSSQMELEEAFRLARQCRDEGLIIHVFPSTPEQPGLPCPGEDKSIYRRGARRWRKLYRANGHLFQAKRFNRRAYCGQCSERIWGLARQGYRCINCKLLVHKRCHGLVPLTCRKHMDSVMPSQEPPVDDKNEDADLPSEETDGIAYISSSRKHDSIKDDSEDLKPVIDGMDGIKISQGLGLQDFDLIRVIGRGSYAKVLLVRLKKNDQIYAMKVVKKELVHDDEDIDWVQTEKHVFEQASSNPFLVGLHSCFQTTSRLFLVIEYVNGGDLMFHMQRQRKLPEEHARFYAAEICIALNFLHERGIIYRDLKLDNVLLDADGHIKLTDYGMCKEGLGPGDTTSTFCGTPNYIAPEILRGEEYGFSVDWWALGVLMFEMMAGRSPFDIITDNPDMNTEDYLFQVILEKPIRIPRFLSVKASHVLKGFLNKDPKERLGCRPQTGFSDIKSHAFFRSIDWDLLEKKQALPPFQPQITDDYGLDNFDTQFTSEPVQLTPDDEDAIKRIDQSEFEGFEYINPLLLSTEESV
Assay [20] addresses Dual specificity tyrosine-phosphorylation-regulated kinase 3 (Homo sapiens) (UniProt O43781). In words: Inhibition of DYRK3 assessed as residual activity at 1 uM.
The target in assay [21] is Mitogen-activated protein kinase 3 (Homo sapiens) (UniProt P27361). Nature of the assay: Inhibition of ERK1 assessed as residual activity at 0.01 uM.
The target of assay [22] is Calcium/calmodulin-dependent protein kinase type 1 (Homo sapiens) (UniProt Q14012). In words: Inhibition of CAMK1 assessed as residual activity at 1 uM.
Calcium/calmodulin-dependent protein kinase type 1 (Homo sapiens), sequence (Q14012 whole entry, looked up): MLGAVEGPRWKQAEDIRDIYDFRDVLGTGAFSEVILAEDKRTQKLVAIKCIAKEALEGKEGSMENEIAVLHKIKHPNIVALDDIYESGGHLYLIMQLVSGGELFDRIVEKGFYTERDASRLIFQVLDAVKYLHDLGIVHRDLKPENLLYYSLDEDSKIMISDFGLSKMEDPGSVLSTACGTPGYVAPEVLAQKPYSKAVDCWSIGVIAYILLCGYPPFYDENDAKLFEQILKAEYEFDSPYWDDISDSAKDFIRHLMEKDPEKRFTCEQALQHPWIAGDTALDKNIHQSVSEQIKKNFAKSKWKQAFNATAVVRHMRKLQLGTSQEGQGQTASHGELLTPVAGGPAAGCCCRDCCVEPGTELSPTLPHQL
For assay [23], the target named is RAC-alpha serine/threonine-protein kinase (Homo sapiens) (UniProt P31749). In words: Inhibition of PKBalpha assessed as residual activity at 0.01 uM.
Assay [24] addresses 3-phosphoinositide-dependent protein kinase 1 (Homo sapiens) (UniProt O15530). In words: Inhibition of PDK1 assessed as residual activity at 0.01 uM.
The target in assay [25] is Serine/threonine-protein kinase Chk1 (Homo sapiens) (UniProt O14757). In words: Inhibition of CHK1 assessed as residual activity at 0.01 uM.
Assay [26] has as its target Serine/threonine-protein kinase N2 (Homo sapiens) (UniProt Q16513). Nature of the assay: Inhibition of PRK2 assessed as residual activity at 0.01 uM.
Assay [27] addresses Serine/threonine-protein kinase pim-1 (Homo sapiens) (UniProt P11309). Nature of the assay: Inhibition of PIM1 assessed as residual activity at 0.01 uM.
Assay [28] addresses MAP kinase-activated protein kinase 5 (Homo sapiens) (UniProt Q8IW41). Nature of the assay: Inhibition of PRAK assessed as residual activity at 0.01 uM.
Assay [29] deals with 3-phosphoinositide-dependent protein kinase 1 (Homo sapiens) (UniProt O15530). Nature of the assay: Inhibition of PDK1 assessed as residual activity at 1 uM.
Assay [30] concerns the target Serine/threonine-protein kinase PAK 5 (Homo sapiens) (UniProt Q9P286). Nature of the assay: Inhibition of PAK5 assessed as residual activity at 1 uM.
The species entered for assay [31] is Homo sapiens. In words: Inhibition of CDK2/cyclin A assessed as residual activity at 1 uM.
The target of assay [32] is Protein kinase C alpha type (Homo sapiens) (UniProt P17252). In words: Inhibition of PKCalpha assessed as residual activity at 1 uM.
Assay [33] deals with Serine/threonine-protein kinase pim-1 (Homo sapiens) (UniProt P11309). Nature of the assay: Inhibition of PIM1 assessed as residual activity at 1 uM.
Serine/threonine-protein kinase pim-1 (Homo sapiens), sequence (P11309 whole entry, looked up): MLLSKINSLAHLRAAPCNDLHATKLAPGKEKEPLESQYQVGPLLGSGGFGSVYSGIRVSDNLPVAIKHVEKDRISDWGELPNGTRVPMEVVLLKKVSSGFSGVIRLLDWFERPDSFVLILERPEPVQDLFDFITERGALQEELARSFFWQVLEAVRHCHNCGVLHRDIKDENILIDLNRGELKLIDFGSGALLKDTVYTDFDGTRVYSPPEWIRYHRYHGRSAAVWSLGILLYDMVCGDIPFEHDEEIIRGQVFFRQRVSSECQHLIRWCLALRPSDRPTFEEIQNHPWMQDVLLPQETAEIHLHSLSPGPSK
The target of assay [34] is Glycogen synthase kinase-3 beta (Homo sapiens) (UniProt P49841). Nature of the assay: Inhibition of GSK3-beta assessed as residual activity at 1 uM.
Assay [35] has as its target Serine/threonine-protein kinase pim-2 (Homo sapiens) (UniProt Q9P1W9). In words: Inhibition of PIM2 assessed as residual activity at 1 uM.
Assay [36] has as its target RAC-alpha serine/threonine-protein kinase (Homo sapiens) (UniProt P31749). In words: Inhibition of PKBalpha assessed as residual activity at 1 uM.
The target in assay [37] is Serine/threonine-protein kinase pim-2 (Homo sapiens) (UniProt Q9P1W9). In words: Inhibition of PIM2 assessed as residual activity at 0.01 uM.
Serine/threonine-protein kinase pim-2 (Homo sapiens), sequence (Q9P1W9 whole entry, looked up): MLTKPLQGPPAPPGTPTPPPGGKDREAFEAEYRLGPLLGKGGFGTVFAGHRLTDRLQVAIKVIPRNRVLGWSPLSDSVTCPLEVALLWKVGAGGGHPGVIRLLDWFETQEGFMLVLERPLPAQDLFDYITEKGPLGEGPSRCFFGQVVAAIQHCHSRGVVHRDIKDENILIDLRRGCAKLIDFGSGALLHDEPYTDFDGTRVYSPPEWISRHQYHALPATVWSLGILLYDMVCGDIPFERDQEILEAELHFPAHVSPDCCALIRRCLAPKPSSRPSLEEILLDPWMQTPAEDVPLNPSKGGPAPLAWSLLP
Assay [38] deals with Protein kinase C zeta type (Homo sapiens) (UniProt Q05513). In words: Inhibition of PKCzeta assessed as residual activity at 0.01 uM.
The target of assay [39] is Mitogen-activated protein kinase 3 (Homo sapiens) (UniProt P27361). Nature of the assay: Inhibition of ERK1 assessed as residual activity at 1 uM.
In assay [40] the target is Serine/threonine-protein kinase D1 (Homo sapiens) (UniProt Q15139). Nature of the assay: Inhibition of PKD1 assessed as residual activity at 1 uM.
Serine/threonine-protein kinase D1 (Homo sapiens), sequence (Q15139 whole entry): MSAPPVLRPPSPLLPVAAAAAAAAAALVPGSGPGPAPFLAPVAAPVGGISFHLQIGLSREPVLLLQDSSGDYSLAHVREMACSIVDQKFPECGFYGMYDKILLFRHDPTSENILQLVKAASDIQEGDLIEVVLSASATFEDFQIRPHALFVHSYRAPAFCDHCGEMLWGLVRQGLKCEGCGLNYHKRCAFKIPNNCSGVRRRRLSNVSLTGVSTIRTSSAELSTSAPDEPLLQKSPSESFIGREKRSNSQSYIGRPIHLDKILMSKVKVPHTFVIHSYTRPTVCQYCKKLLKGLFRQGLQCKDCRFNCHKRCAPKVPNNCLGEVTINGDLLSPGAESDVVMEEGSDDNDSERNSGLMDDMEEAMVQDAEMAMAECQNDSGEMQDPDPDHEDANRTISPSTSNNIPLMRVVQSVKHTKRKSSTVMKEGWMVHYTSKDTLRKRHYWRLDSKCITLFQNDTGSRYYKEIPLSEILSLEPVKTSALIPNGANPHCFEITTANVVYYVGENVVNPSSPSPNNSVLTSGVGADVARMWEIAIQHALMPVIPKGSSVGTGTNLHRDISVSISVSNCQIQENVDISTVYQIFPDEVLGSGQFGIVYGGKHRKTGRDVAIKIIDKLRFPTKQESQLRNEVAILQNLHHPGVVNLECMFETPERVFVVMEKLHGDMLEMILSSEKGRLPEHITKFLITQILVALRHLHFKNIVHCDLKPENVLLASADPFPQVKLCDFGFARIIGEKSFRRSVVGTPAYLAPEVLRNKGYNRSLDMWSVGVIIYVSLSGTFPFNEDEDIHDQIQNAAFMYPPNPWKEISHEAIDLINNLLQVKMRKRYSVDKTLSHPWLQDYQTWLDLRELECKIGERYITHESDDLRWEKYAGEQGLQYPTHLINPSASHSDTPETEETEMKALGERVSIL
In assay [41] the target is Ribosomal protein S6 kinase alpha-3 (Homo sapiens) (UniProt P51812). Nature of the assay: Inhibition of RSK2 assessed as residual activity at 0.01 uM.
In assay [42] the target is Proto-oncogene tyrosine-protein kinase Src (Homo sapiens) (UniProt P12931). In words: Inhibition of Src assessed as residual activity at 0.01 uM.
Assay [43] concerns the target T1, AMP-activated protein kinase, AMPK (Homo sapiens). In words: Inhibition of AMPK assessed as residual activity at 1 uM. It counts as protein-complex assay.
Assay [44] has as its target Proto-oncogene tyrosine-protein kinase Src (Homo sapiens) (UniProt P12931). Nature of the assay: Inhibition of Src assessed as residual activity at 1 uM.
Assay [45] has as its target T2, Casein kinase II (Homo sapiens) (UniProt P67870+P68400+P19784). Nature of the assay: Inhibition of CK2 assessed as residual activity at 1 uM. It counts as protein-complex assay.
Assay [46] deals with Serine/threonine-protein kinase Nek6 (Homo sapiens) (UniProt Q9HC98). In words: Inhibition of NEK6 assessed as residual activity at 0.01 uM.
The species named for assay [47] is Homo sapiens. Nature of the assay: Inhibition of PKA assessed as residual activity at 0.01 uM.
Assay [48] concerns the target Serine/threonine-protein kinase Nek6 (Homo sapiens) (UniProt Q9HC98). Nature of the assay: Inhibition of NEK6 assessed as residual activity at 1 uM. It counts as functional.
Assay [49] concerns the target RAC-beta serine/threonine-protein kinase (Homo sapiens) (UniProt P31751). Nature of the assay: Inhibition of PKBbeta assessed as residual activity at 0.01 uM.
The target of assay [50] is Dual specificity tyrosine-phosphorylation-regulated kinase 3 (Homo sapiens) (UniProt O43781). Nature of the assay: Inhibition of DYRK3 assessed as residual activity at 0.01 uM.
Assay [51] deals with Serine/threonine-protein kinase N2 (Homo sapiens) (UniProt Q16513). In words: Inhibition of PRK2 assessed as residual activity at 1 uM.
Assay [52] addresses Serine/threonine-protein kinase D1 (Homo sapiens) (UniProt Q15139). In words: Inhibition of PKD1 assessed as residual activity at 0.01 uM.
Assay [53] is filed under the species Homo sapiens. Nature of the assay: Inhibition of CDK2/cyclin A assessed as residual activity at 0.01 uM.
Assay [54] addresses Aurora kinase B (Homo sapiens) (UniProt Q96GD4). In words: Inhibition of AURORA B assessed as residual activity at 1 uM.
In assay [55] the target is MAP kinase-activated protein kinase 3 (Homo sapiens) (UniProt Q16644). Nature of the assay: Inhibition of MAPKAP K3 assessed as residual activity at 1 uM.
Assay [56] concerns the target Serine/threonine-protein kinase PAK 5 (Homo sapiens) (UniProt Q9P286). Nature of the assay: Inhibition of PAK5 assessed as residual activity at 0.01 uM.
In assay [57] the target is Maternal embryonic leucine zipper kinase (Homo sapiens) (UniProt Q14680). Nature of the assay: Inhibition of MELK assessed as residual activity at 0.01 uM.
The target of assay [58] is Mitogen-activated protein kinase 10 (Homo sapiens) (UniProt P53779). Nature of the assay: Inhibition of JNK3 assessed as residual activity at 1 uM.
In assay [59] the target is Ribosomal protein S6 kinase alpha-1 (Homo sapiens) (UniProt Q15418). In words: Inhibition of RSK1 assessed as residual activity at 0.01 uM.
The target of assay [60] is Serine/threonine-protein kinase Sgk1 (Homo sapiens) (UniProt O00141). In words: Inhibition of SGK1 assessed as residual activity at 0.01 uM.
Assay [61] addresses T2, Casein kinase II (Homo sapiens). Nature of the assay: Inhibition of CK2 assessed as residual activity at 0.1 uM. It counts as protein-complex assay.
In assay [62] the target is Ribosomal protein S6 kinase beta-1 (Homo sapiens) (UniProt P23443). Nature of the assay: Inhibition of S6K1 assessed as residual activity at 1 uM.
Assay [63] shares this target. Nature of the assay: Inhibition of S6K1 assessed as residual activity at 0.01 uM.
The target of assay [64] is Protein kinase C alpha type (Homo sapiens) (UniProt P17252). In words: Inhibition of PKCalpha assessed as residual activity at 0.01 uM.
Assay [65] has as its target Tyrosine-protein kinase Lck (Homo sapiens) (UniProt P06239). Nature of the assay: Inhibition of Lck assessed as residual activity at 1 uM.

Usually IC50 stands for the midpoint of a concentration-inhibition curve.

Serine/threonine-protein kinase PAK 5 (Homo sapiens), sequence (Q9P286 whole entry, looked up): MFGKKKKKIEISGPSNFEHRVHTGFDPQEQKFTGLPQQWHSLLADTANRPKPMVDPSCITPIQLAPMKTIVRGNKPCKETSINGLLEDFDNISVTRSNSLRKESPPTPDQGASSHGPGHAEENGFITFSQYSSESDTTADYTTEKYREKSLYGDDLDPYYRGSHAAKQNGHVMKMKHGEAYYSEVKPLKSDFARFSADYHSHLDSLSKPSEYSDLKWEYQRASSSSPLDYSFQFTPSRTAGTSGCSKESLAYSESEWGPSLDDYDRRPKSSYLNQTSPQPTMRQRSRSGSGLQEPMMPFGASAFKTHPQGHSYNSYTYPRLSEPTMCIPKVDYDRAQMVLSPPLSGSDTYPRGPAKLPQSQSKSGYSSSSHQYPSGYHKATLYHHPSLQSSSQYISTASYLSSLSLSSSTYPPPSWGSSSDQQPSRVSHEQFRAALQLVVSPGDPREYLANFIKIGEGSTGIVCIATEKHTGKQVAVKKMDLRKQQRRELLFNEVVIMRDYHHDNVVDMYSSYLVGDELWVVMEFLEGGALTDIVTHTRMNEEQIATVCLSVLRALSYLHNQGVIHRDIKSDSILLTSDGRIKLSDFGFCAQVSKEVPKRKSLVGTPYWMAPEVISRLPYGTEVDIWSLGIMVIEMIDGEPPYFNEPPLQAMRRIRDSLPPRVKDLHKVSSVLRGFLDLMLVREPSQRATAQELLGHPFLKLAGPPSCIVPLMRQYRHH

In the case of `COC(=O)[C@@H]1C[C@@H](O)[C@H](n2cnc3c(N)ncnc32)C1`, the IC50 in assay [1] amounted to 168 µM.

Turning to `N=C(N)NCCC[C@H](NC(=O)[C@H](CCCNC(=N)N)NC(=O)[C@H](CCCNC(=N)N)NC(=O)[C@H](CCCNC(=N)N)NC(=O)[C@H](CCCNC(=N)N)NC(=O)[C@H](CCCNC(=N)N)NC(=O)CCCCCNC(=O)[C@@H]1C[C@@H](O)[C@H](n2cnc3c(N)ncnc32)C1)C(N)=O`, the Activity in assay [2] was found to be 77%; in [3], 76%; in [4], 62%; in assay [5], 70%; in assay [6], 97%; in [7] it was 10%. Moreover, the Activity in assay [8] was determined as 28%; in assay [9], 27%; in [10], 2%; in assay [11], 98%; in assay [12], 19%; in [13], 103%. Further, the Activity is 86% in assay [14]; 82% in assay [15]; 97% in assay [16]; 0% in the assay listed under Homo sapiens [17]; 96% in [18]; 33% in assay [19]. For the same compound, the Activity was found to be 51% in assay [20]; 82% in assay [21]; 19% in assay [22]; 25% in assay [23]; 76% in assay [24]; 84% in [25]. The Activity in [26] was 59%; in assay [27], 92%; in [28], 88%; in assay [29], 28%; in assay [30], 10%; in the assay filed under Homo sapiens [31] it was 114%. In addition, the Activity in assay [32] was determined as 30%; in assay [33], 6%; in [34], 88%; in assay [35] it was 20%; in assay [36], 32%; in [37], 103%. Moreover, the Activity in assay [38] is 83%; in assay [39], 84%; in assay [40], 73%; in [41], 91%; in assay [42] it was 85%; in assay [43], 12%. Besides, the Activity in assay [44] is 84%; in assay [45] it was 88%; in assay [46] it was 101%; in the assay filed under Homo sapiens [47], 7%; in assay [48], 111%; in assay [49], 74%. The Activity was 81% in assay [50]; 3% in [51]; 81% in assay [52]; 103% in the assay filed under Homo sapiens [53]; 72% in assay [54]; 91% in [55]. Moreover, the Activity is 71% in assay [56]; 86% in assay [57]; 104% in assay [58]; 98% in [59]; 40% in assay [60]; 86% in assay [61]. Also, the Activity in assay [62] is 7%; in assay [63] it was 81%; in assay [64], 96%; in assay [65], 63%.

Consider `COC(=O)[C@H]1C[C@H](O)[C@@H](n2cnc3c(N)ncnc32)C1`, for which the IC50 in assay [1] was over 1000 µM.
